The source made the active and inactive calls.
Key:
Type in all cases: cell-based
[1] = target: Probable ATP-dependent RNA helicase DDX5 (Homo sapiens) (UniProt P17844); test: Binding affinity to DDX5 in human NCI-H23 cells at 1 uM by mass spectrometry based pull down assay
[2] = target: Ubiquitin-like modifier-activating enzyme 1 (Homo sapiens) (UniProt P22314); test: Binding affinity to UBA1 in human NCI-H23 cells at 1 uM by mass spectrometry based pull down assay
[3] = target: Uracil-DNA glycosylase (Homo sapiens) (UniProt P13051); test: Binding affinity to UNG in human NCI-H358 cells at 1 uM by mass spectrometry based pull down assay
[4] = target: Proteasome subunit beta type-6 (Homo sapiens) (UniProt P28072); test: Binding affinity to PSMB6 in human NCI-H358 cells at 1 uM by mass spectrometry based pull down assay
[5] = target: Thioredoxin-like protein 1 (Homo sapiens) (UniProt O43396); test: Binding affinity to TXNL1 in human NCI-H23 cells at 1 uM by mass spectrometry based pull down assay
[6] = target: T1, Dual specificity mitogen-activated protein kinase kinase 4 (Homo sapiens) (UniProt P45985); test: Binding affinity to MAP2K4 in human NCI-H358 cells at 1 uM by mass spectrometry based pull down assay
T1 sequence (whole entry): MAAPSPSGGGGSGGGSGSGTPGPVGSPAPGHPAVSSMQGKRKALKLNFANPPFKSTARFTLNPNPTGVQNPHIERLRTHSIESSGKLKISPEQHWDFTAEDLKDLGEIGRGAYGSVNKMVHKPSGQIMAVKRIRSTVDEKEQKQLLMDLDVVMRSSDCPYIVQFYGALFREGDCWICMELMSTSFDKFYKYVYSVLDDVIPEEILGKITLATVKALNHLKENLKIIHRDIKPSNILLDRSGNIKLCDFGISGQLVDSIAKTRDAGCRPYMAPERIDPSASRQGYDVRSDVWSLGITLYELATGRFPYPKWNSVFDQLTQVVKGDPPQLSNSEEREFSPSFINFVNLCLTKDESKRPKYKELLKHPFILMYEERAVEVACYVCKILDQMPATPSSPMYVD

[7] = target: Mitogen-activated protein kinase kinase kinase 20 (Homo sapiens) (UniProt Q9NYL2); test: Binding affinity to ZAK in human NCI-H358 cells at 1 uM by mass spectrometry based pull down assay
[8] = target: Cysteine and glycine-rich protein 2 (Homo sapiens) (UniProt Q16527); test: Binding affinity to CSRP2 in human NCI-H23 cells at 1 uM by mass spectrometry based pull down assay
[9] = target: DnaJ homolog subfamily A member 2 (Homo sapiens) (UniProt O60884); test: Binding affinity to DNAJA2 in human NCI-H23 cells at 1 uM by mass spectrometry based pull down assay
[10] = target: 80S Ribosome (Homo sapiens) (UniProt P08865+P42677+P62753+P15880+P23396+P61247+P62701+P22090+P46782+P62081+P62241+P46781+P46783+P62280+P25398+P62277+P62263+P62841+P62244+P62249+P08708+P62269+P39019+P60866+P63220+P62266+P62847+P62851+P62854+P62979+P62857+P62273+P62861+P39023+P36578+P46777+Q02878+P18124+P62424+P62917+P32969+P27635+P62906+P62913+P30050+P26373+P40429+P50914+P61313+P18621+Q07020+Q02543+P84098+P46778+P35268+P62829+P62750+P83731+P61254+P61353+P46776+P46779+P47914+P62888+P62899+P62910+P49207+P42766+P18077+Q9Y3U8+P83881+P61927+P61513+P63173+P62891+P62945+P05388+P05386); test: Binding affinity to RPS5 in human NCI-H23 cells at 1 uM by mass spectrometry based pull down assay
[11] = target: T2, Serine/threonine-protein kinase D2 (Homo sapiens) (UniProt Q9BZL6); test: Binding affinity to PRKD2 in human NCI-H358 cells at 1 uM by mass spectrometry based pull down assay
T2 sequence (whole entry): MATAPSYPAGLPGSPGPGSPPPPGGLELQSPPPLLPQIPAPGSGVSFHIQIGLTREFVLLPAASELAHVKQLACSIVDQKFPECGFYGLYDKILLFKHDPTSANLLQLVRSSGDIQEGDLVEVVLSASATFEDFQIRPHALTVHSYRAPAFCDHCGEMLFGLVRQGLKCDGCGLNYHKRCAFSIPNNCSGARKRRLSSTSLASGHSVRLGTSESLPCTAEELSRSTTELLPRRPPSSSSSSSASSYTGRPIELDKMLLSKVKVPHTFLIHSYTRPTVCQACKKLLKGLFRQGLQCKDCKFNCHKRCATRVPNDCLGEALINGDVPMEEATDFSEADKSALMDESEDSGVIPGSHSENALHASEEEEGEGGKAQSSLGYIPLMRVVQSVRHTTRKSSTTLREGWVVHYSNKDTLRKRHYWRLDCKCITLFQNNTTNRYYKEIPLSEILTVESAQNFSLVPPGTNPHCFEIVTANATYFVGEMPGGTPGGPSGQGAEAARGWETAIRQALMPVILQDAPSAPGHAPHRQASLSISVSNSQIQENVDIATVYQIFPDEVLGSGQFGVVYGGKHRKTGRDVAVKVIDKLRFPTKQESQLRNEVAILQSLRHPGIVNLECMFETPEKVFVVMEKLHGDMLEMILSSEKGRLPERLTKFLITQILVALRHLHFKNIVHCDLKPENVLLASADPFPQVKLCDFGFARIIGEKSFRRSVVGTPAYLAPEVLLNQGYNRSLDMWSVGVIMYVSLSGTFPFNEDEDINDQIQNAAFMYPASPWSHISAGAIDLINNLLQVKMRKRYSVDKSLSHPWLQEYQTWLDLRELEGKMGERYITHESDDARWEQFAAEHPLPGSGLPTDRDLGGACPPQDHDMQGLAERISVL

[12] = target: Proteasome activator complex subunit 1 (Homo sapiens) (UniProt Q06323); test: Binding affinity to PSME1 in human NCI-H358 cells at 1 uM by mass spectrometry based pull down assay

Measured: Activity

Chain of Proteasome subunit beta type-6 (Homo sapiens) (P28072 whole entry): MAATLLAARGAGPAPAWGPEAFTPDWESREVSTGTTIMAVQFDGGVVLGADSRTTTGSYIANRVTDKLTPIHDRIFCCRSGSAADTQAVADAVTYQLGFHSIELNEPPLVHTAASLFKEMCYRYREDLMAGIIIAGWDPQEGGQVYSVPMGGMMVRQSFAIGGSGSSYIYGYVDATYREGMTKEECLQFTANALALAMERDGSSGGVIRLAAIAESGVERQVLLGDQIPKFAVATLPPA
Chain of Mitogen-activated protein kinase kinase kinase 20 (Homo sapiens) (Q9NYL2 2-800 limits assumed): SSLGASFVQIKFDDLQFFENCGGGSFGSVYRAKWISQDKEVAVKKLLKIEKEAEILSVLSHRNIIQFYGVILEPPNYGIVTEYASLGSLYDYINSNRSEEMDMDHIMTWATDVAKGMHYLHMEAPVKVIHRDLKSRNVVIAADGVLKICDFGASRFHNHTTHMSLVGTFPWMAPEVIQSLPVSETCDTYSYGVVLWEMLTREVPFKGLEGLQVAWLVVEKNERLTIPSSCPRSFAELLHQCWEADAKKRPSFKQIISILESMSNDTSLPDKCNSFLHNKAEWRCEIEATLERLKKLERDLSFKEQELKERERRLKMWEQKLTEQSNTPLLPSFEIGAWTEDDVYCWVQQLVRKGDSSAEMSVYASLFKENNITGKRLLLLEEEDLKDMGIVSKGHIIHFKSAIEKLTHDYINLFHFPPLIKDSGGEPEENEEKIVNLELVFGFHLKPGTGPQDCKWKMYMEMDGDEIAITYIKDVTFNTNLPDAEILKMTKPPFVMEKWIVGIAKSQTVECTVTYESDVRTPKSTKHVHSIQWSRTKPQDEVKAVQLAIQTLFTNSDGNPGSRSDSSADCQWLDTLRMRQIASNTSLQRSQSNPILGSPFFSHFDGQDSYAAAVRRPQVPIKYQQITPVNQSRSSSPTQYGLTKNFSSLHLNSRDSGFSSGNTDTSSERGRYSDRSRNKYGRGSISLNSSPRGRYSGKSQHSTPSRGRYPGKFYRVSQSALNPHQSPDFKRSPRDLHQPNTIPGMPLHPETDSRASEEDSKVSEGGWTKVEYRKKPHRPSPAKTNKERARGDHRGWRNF
Chain of Uracil-DNA glycosylase (Homo sapiens) (P13051 whole entry): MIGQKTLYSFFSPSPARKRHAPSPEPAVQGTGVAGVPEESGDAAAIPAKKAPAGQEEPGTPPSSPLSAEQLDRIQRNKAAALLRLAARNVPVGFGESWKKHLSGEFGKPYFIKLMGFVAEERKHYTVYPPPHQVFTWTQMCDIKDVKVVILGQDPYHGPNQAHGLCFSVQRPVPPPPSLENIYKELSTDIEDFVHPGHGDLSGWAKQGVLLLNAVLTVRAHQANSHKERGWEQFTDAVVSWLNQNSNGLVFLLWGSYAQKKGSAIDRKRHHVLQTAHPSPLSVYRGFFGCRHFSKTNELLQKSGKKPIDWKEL
Chain of Proteasome activator complex subunit 1 (Homo sapiens) (Q06323 whole entry, one chain of several): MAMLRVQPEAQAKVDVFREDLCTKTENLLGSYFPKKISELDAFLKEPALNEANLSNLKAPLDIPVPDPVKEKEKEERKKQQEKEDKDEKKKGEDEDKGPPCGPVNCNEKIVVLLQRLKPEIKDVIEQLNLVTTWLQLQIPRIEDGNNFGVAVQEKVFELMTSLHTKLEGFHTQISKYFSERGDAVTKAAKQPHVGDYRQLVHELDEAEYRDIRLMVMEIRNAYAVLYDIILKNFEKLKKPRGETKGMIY
Chain of Probable ATP-dependent RNA helicase DDX5 (Homo sapiens) (P17844 whole entry): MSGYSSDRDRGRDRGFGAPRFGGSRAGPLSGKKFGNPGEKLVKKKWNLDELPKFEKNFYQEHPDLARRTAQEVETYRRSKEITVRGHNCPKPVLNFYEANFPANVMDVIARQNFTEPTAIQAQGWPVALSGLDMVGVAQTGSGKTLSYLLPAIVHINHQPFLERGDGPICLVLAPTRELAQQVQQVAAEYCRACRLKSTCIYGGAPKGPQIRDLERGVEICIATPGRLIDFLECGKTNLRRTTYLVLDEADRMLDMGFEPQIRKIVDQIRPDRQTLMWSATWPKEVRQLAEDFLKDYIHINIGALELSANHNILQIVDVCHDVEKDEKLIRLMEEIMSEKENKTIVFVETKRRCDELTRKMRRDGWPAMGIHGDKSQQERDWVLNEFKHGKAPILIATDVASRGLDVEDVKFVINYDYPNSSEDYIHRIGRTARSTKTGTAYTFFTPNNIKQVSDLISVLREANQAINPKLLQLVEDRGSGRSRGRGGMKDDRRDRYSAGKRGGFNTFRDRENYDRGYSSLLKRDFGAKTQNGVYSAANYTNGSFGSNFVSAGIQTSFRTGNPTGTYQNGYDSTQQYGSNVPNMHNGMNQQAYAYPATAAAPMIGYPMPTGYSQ
Chain of DnaJ homolog subfamily A member 2 (Homo sapiens) (O60884 whole entry): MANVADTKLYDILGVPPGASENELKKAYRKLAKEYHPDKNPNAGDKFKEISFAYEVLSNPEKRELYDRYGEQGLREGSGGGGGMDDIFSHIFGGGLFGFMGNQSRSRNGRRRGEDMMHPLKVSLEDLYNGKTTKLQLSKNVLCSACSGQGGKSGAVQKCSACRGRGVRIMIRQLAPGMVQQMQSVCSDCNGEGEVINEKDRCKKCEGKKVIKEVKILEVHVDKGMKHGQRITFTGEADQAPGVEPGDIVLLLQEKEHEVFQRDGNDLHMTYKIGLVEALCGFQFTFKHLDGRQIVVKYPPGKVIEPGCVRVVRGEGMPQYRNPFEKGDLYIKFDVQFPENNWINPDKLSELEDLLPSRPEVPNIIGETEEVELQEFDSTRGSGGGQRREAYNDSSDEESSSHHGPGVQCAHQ
Chain of Cysteine and glycine-rich protein 2 (Homo sapiens) (Q16527 whole entry): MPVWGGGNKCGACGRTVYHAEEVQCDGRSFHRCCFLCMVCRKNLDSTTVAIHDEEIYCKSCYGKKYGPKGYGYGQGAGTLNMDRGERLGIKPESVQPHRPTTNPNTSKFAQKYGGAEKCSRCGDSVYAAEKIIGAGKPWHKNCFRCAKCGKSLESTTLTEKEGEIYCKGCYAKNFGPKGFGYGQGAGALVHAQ
Chain of Ubiquitin-like modifier-activating enzyme 1 (Homo sapiens) (P22314 whole entry): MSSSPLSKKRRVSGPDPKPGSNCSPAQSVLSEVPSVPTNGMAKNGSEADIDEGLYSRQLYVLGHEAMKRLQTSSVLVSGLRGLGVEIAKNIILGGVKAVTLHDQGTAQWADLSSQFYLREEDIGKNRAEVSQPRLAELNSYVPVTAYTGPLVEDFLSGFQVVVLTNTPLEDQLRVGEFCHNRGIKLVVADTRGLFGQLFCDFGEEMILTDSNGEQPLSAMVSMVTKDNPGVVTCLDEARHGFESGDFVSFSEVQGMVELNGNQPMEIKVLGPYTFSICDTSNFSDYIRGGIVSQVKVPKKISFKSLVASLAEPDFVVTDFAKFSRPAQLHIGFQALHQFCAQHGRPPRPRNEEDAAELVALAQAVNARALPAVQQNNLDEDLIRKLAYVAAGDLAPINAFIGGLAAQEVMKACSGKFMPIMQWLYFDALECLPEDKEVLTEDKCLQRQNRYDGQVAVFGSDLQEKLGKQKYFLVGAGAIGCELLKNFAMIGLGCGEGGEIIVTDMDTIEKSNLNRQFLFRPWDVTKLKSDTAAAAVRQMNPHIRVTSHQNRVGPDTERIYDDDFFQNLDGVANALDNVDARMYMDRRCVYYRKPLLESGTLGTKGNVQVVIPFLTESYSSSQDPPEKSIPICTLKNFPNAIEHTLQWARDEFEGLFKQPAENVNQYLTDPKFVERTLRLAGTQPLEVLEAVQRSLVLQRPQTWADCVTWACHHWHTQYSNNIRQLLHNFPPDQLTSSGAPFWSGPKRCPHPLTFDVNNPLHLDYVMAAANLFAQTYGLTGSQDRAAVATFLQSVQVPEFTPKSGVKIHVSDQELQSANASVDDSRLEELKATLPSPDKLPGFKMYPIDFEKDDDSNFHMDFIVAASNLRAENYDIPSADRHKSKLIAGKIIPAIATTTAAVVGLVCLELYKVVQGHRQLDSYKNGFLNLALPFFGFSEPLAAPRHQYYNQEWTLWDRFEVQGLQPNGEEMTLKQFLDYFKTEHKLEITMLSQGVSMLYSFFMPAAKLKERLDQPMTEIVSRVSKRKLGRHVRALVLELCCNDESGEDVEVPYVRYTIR
Chain of Thioredoxin-like protein 1 (Homo sapiens) (O43396 whole entry): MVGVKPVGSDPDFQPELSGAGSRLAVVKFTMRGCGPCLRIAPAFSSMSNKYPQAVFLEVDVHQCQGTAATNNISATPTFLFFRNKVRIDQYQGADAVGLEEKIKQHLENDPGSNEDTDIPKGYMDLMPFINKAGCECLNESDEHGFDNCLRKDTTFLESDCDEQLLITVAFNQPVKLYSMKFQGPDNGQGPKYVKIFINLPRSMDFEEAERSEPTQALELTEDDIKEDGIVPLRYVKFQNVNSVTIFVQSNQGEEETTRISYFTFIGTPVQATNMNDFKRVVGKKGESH

C=CC(=O)Nc1ccccc1Nc1nc(Nc2ccc(N3CCN(CCOCCOCCOCCNC(=O)CCCC[C@@H]4SC[C@@H]5NC(=O)N[C@@H]54)CC3)cc2)ncc1Cl
active: all assays above

From ChEMBL document CHEMBL4118021, “Studies of TAK1-centered polypharmacology with novel covalent TAK1 inhibitors” (Bioorg Med Chem, 2017)
